Data published in patent publication US8748471B2, “2-alkyl-cycloalk(en)yl-carboxamides” (priority 2004, dated 2014).
Where two headings read alike, the source gives them in different places.

Legend:
[1] = log P determination by HPLC on reverse-phase column (C 18), acidic range pH 2.3 (EEC Directive 79/831 Annex V. A8); assay type: physicochemical; conditions: for chromatographic logP: reverse-phase HPLC column (C 18)
Procedure: The stated log P values were determined in accordance with EEC Directive 79/831 Annex V. A8 by HPLC (High Performance Liquid Chromatography) on a reverse-phase column (C 18). Temperature: 43° C. Mobile phases for the determination in the acidic range (pH 2.3): 0.1% aqueous phosphoric acid, acetonitrile; linear gradient from 10% acetonitrile to 90% acetonitrile. Calibration was carried out using unbranched alkan-2-ones (having 3 to 16 carbon atoms) with known log P values (determination of the log P values by the retention times using linear interpolation between two successive alkanones).

Puccinia recondita = assay: Puccinia test (wheat)/protective; assay type: in vivo; conditions: 240 h, protective, application rate 500 g/ha, evaluation 10 days after inoculation, 0% = control, 100% = no infection, read-out: Efficacy in %
Procedure: (§1) To produce a suitable preparation of active compound, 1 part by weight of active compound is mixed with the stated amounts of solvent and emulsifier, and the concentrate is diluted with water to the desired concentration.
To test for protective activity, young plants are sprayed with the preparation of active compound at the stated application rate. After the spray coating has dried on, the plants are sprayed with a conidia suspension of Puccinia recondita. The plants remain in an incubation cabinet at 20° C. and 100% relative atmospheric humidity for 48 hours. The plants are then placed in a greenhouse at a temperature of about 20° C. and a relative atmospheric humidity of 80%.
(§2) Evaluation is carried out 10 days after the inoculation. 0% means an efficacy which corresponds to that of the control, whereas an efficacy of 100% means that no infection is observed.

Venturia inaequalis = assay: Venturia test (apple)/protective; assay type: in vivo; conditions: protective, application rate 100 g/ha, evaluation 10 days after inoculation, 0% = control, 100% = no infection
Procedure: (§3) To produce a suitable preparation of active compound, 1 part by weight of active compound is mixed with the stated amounts of solvents and emulsifier, and the concentrate is diluted with water to the desired concentration.
To test for protective activity, young plants are sprayed with the preparation of active compound at the stated application rate. After the spray coating has dried on, the plants ate inoculated with an aqueous conidia suspension of the apple scab pathogen Venturia inaequalis and then remain in an incubation cabinet as about 20° C. and 100% relative atmospheric humidity for 1 day. The plants are then placed in a greenhouse at about 21° C. and a relative atmospheric humidity of about 90%.
as §2

Botrytis cinerea = assay: Botrytis test (bean)/protective; assay type: in vivo; conditions: protective, application rate 500 g/ha, evaluation 2 days after inoculation (size of infected areas), 0% = control, 100% = no infection
Procedure: as §3
To test for protective activity, young plants are sprayed with the preparation of active compound at the stated application rate. After the spray coating has dried on 2 small pieces of agar colonized by Botrytis cinerea are placed onto each leaf. The inoculated plants are placed in a dark chamber at about 20° C. and 100% relative atmospheric humidity.
2 days after the inoculation, the size of the infected areas on the leaves is evaluated. 0% means an efficacy which corresponds to that of the control, whereas an efficacy of 100% means that no infection is observed.

Alternaria solani = assay: Alternaria test (tomato)/protective; assay type: in vivo; conditions: protective, application rate 750 g/ha, evaluation 7 days after inoculation, 0% = control, 100% = no infection
Procedure: as §1
To test for protective activity, young tomato plants are sprayed with the preparation of active compound at the stated application rate. 1 day after the treatment, the plants are inoculated with a spore suspension of Alternaria solani and then remain at 100% relative atmospheric humidity and 20° C. for 24 h. The plants then remain at 96% relative atmospheric humidity and a temperature of 20° C.
Evaluation is carried out 7 days after the inoculation. 0% means an efficacy which corresponds to that of the control, whereas an efficacy of 100% means that no infection is observed.

[2] = Table 1 (I-c), pH 2.3, HPLC C18, 43° C., main diastereomer or, where several values in a cell, the individual diastereomers
[3] = pH 2.3, Table 1 (I-c), pH 2.3, HPLC C18, 43° C., main diastereomer or, where several values in a cell, the individual diastereomers, read-out: logP
[4] = Table 3 (I-k), pH 2.3, HPLC C18, 43° C., main diastereomer or the individual diastereomers

logP [1, 2] | SMILES | also measured
4.59 | CC(C)CCC1CCCCC1NC(=O)c1ccccc1C(F)(F)F (mixture of isomers) [I-c-61] | 
3.95 | CC(C)CCC1CCCCC1NC(=O)c1cn(C)nc1C(F)F (mixture of isomers) [I-c-62] | 
3.19 | Cc1nn(C)cc1C(=O)NC1CCCCC1CCC(C)C (mixture of isomers) [I-c-63] | 
4.42 | CC(C)CCC1CCCCC1NC(=O)C1=C(C(F)(F)F)OCCS1 (mixture of isomers) [I-c-64] | 
4.51 | CC1=C(C(=O)NC2CCCCC2CCC(C)C)SCCO1 (mixture of isomers) [I-c-68] | 
4.61 | CC(C)CCC1CCCCC1NC(=O)c1cn(C)cc1C(F)(F)F (stereo not shown) [I-c-69] | 
4.66 | CC(C)CCC1CCCCC1NC(=O)c1ccccc1I (stereo not shown) [I-c-70] | 
4.8 | CC(C)CCC1CCCCC1NC(=O)c1ccsc1I (stereo not shown) [I-c-72] | 
4.47 | CC(C)CCC1CCCCC1NC(=O)c1c(C(F)(F)F)nn(C)c1F (stereo not shown) [I-c-74] | 
4.22 | CC(C)CCCC1CCCCC1NC(=O)c1cccnc1Cl (stereo not shown) [I-c-75] | 
4.66 | CC(C)CCCC1CCCCC1NC(=O)c1cn(C)nc1C(F)(F)F (stereo not shown) [I-c-76] | 
4.07 | Cc1nn(C)c(Cl)c1C(=O)NC1CCCCC1CCC(C)C (stereo not shown) [I-c-77] | 
4.95 | Cc1nc(C(F)F)c(C(=O)NC2CCCCC2CCCC(C)C)s1 (stereo not shown) [I-c-78] | 
5.06 | Cc1nc(C(F)(F)F)c(C(=O)NC2CCCCC2CCCC(C)C)s1 (stereo not shown) [I-c-79] | 
4.24 | Cn1cc(C(=O)NC2CCCCC2CCC(C)(C)C)c(C(F)F)n1 (stereo not shown) [I-c-81] | 
4.72 | Cn1nc(C(F)(F)F)c(C(=O)NC2CCCCC2CCC(C)(C)C)c1F (stereo not shown) [I-c-82] | 
4.40 | CC(C)CCCC1CCCCC1NC(=O)c1cn(C)nc1C(F)F (stereo not shown) [I-c-83] | 
4.30 | Cc1nn(C)c(F)c1C(=O)NC1CCCCC1CCCC(C)C (stereo not shown) [I-c-84] | 
5.05 | CC(C)CCCC1CCCCC1NC(=O)c1cn(C)cc1C(F)(F)F (stereo not shown) [I-c-86] | 
5.03 | CC(C)(C)CCC1CCCCC1NC(=O)c1sccc1C(F)(F)F (stereo not shown) [I-c-95] | 
5.03 | CC(C)CC(C)C1CCCCC1NC(=O)c1sccc1C(F)(F)F (stereo not shown) [I-c-96] | 
4.87 | CC(C)(C)CCC1CCCCC1NC(=O)c1ccsc1C(F)(F)F (stereo not shown) [I-c-97] | 
4.92 | CC(C)CC(C)C1CCCCC1NC(=O)c1ccsc1C(F)(F)F (stereo not shown) [I-c-98] | 
5.29 | CC(CC(C)(C)C)C1CCCCC1NC(=O)c1sccc1C(F)(F)F (stereo not shown) [I-c-99] | 

The next lines start with the compound.

SMILES | logP [1, 2] | also measured
CC(C)(C)CCC1CCCCC1NC(=O)C1=C(C(F)(F)F)OCCS1 (mixture of isomers) [I-c-39] | 4.66 | 
Cn1cc(C(=O)NC2CCCCC2CCC(C)(C)C)c(C(F)(F)F)n1 (mixture of isomers) [I-c-40] | 4.45 | 
Cn1cc(C(=O)NC2CCCCC2CCC(C)(C)C)c(C(F)(F)F)c1 (mixture of isomers) [I-c-41] | 4.88 | 
CC(C)(C)CCC1CCCCC1NC(=O)c1nccnc1Cl (mixture of isomers) [I-c-42] | 4.27 | 
Cc1nc(C(F)(F)F)c(C(=O)NC2CCCCC2CCC(C)C)s1 (mixture of isomers) [I-c-56] | 4.6 | 
CC(C)CCC1CCCCC1NC(=O)c1cn(C)nc1C(F)(F)F (mixture of isomers) [I-c-57] | 4.19 | 
CC(C)CCC1CCCCC1NC(=O)c1cccnc1Cl (mixture of isomers) [I-c-58] | 3.76 | 
Cc1nc(C(F)F)c(C(=O)NC2CCCCC2CCC(C)C)s1 (mixture of isomers) [I-c-59] | 4.46 | 
Cc1nn(C)c(F)c1C(=O)NC1CCCCC1CCC(C)C (mixture of isomers) [I-c-60] | 3.79 | 
Cc1occc1C(=O)NC1CCCCC1CCC(C)C (mixture of isomers) [I-c-65] | 4.28 | 
CC(C[Si](C)(C)C)C1CCCCC1NC(=O)c1cn(C)nc1C(F)F (mixture of isomers) [I-k-6] |  | logP ([1]; pH 2.3): 4.56
Cc1nc(C(F)F)c(C(=O)NC2CCCCC2C(C)C[Si](C)(C)C)s1 (mixture of isomers) [I-k-8] |  | logP ([1]; pH 2.3): 5.13
CC(C)CC(C)C1CCCCC1N (stereo not shown) [2-(1,3-dimethylbutyl)cyclohexanamine] |  | chromatographic logP ([1]; pH 2.3, text of Example 1, pH 2.3, two values = mixture of diastereomers, read-out: log P (pH 2.3)): 4.07
CC(C)CC(C)C1CCCCC1NC(=O)c1cccnc1Cl (stereo not shown) [I-c-2] | 4.04 | 
Cc1nc(C(F)(F)F)c(C(=O)NC2CCCCC2C(C)CC(C)C)s1 (stereo not shown) [I-c-3] | 4.71 | chromatographic logP [1, 3]: 4.66; pest or weed control at 500 g/ha (Puccinia recondita): 100%
CC(C)CC(C)C1CCCCC1NC(=O)c1cn(C)nc1C(F)(F)F (stereo not shown) [I-c-6] | 4.53 | chromatographic logP [1, 3]: 4.1; Efficacy in % (Venturia inaequalis): 99%; Efficacy in % (Botrytis cinerea): 90%; pest or weed control at 500 g/ha (Puccinia recondita): 100%
Cc1ccsc1C(=O)NC1CCCCC1C(C)CC(C)C (stereo not shown) [I-c-9] | 5.15 | chromatographic logP [1, 3]: 4.73; pest or weed control at 500 g/ha (Puccinia recondita): 100%
CC1=C(C(=O)NC2CCCCC2C(C)CC(C)C)SCCO1 (stereo not shown) [I-c-10] | 4.83 | chromatographic logP [1, 3]: 4.52; pest or weed control at 500 g/ha (Puccinia recondita): 100%; Efficacy in % (Alternaria solani): 100%
CC(C)CC(C)C1CCCCC1NC(=O)c1cn(C)cc1C(F)(F)F (stereo not shown) [I-c-11] | 4.83 | chromatographic logP [1, 3]: 4.45; Efficacy in % (Venturia inaequalis): 90%; Efficacy in % (Botrytis cinerea): 96%
Cc1occc1C(=O)NC1CCCCC1C(C)CC(C)C (stereo not shown) [I-c-12] | 4.58 | chromatographic logP [1, 3]: 4.27; pest or weed control at 500 g/ha (Puccinia recondita): 100%
Cn1cc(C(=O)NC2CCCCC2CCC(C)(C)C)c(C(F)F)n1 (stereo not shown) [I-c-19] | 4.22 | 
Cc1nc(C(F)F)c(C(=O)NC2CCCCC2CCC(C)(C)C)s1 (stereo not shown) [I-c-23] | 4.71 | 
Cn1nc(C(F)(F)F)c(C(=O)NC2CCCCC2CCC(C)(C)C)c1F (stereo not shown) [I-c-24] | 4.72 | 
Cc1occc1C(=O)NC1CCCCC1CCC(C)(C)C (stereo not shown) [I-c-25] | 4.55 | 
CC1=C(C(=O)NC2CCCCC2C(C)CC(C)C)CCO1 (stereo not shown) [I-c-26] | 4.06 | 
CC(C)CCC1CCCCC1NC(=O)c1ccccc1Cl (stereo not shown) [I-c-71] | 4.54 | 
Cc1nn(C)c(F)c1C(=O)NC1CCCCC1CC[Si](C)(C)C (stereo not shown) [I-k-1] |  | logP [1, 4]: 4.15
Cc1nn(C)c(F)c1C(=O)NC1CCCCC1C(C)C[Si](C)(C)C (stereo not shown) [I-k-2] |  | logP [1, 4]: 4.51
C[Si](C)(C)CCC1CCCCC1NC(=O)c1ccsc1I (stereo not shown) [I-k-3] |  | logP ([1]; pH 2.3): 5.13
CC(C[Si](C)(C)C)C1CCCCC1NC(=O)c1ccsc1I (stereo not shown) [I-k-4] |  | logP ([1]; pH 2.3): 5.44
